Measured values published in article PMC7031696 (Cell chemical biology, 2019).
Entries after “also recorded” stand apart in the source; their conditions may differ. Like-named read-outs stand apart in the source and are kept apart here.

How the values were obtained:
[1] = system: Plasmodium falciparum 3D7-A10 parasites; test: Stage specificity assay (8-h exposure of synchronized stages, IC50^8h); assay type: cell-based; settings: for IC50: Plasmodium falciparum
[2] = system: asynchronous 3D7-A10 parasite cultures; test: Standard 72-h exposure asexual blood stage susceptibility assay (IC50^72h); assay type: cell-based, Plasmodium falciparum; settings: Plasmodium falciparum, 3D7, 72 h, read-out: Overall (72hr assay) Mean IC50 (IC50^72h)
[3] = system: 3D7-MR4 trophozoite parasite-infected RBCs; settings: 10 × IC50^72h; ref Allman et al., 2016; cited from earlier work
[4] = system: 3D7-MR4 trophozoite parasite-infected RBCs; test: Metabolomic profiling (hydrophilic metabolite changes, UHPLC-MS); assay type: cell-based, Plasmodium falciparum

`CCN(CC)CCCC(C)Nc1ccnc2cc(Cl)ccc12` (centres unmarked) [Chloroquine, reference compound] showed an IC50 ([1]; 3D7, read-out: Early rings Mean IC50 (IC50^8h)) of 17.8 nM, an IC50 ([1]; 3D7, read-out: Early trophozoites Mean IC50 (IC50^8h)) of 17.4 nM and an IC50 ([1]; 3D7, read-out: IC50^8h values) of under 300 nM. For the same molecule, the IC50 ([1]; 3D7, read-out: Late rings Mean IC50 (IC50^8h)) was 18.6 nM, the IC50 ([1]; 3D7, read-out: Late trophozoites Mean IC50 (IC50^8h)) was 30.1 nM and the IC50 ([1]; 3D7, read-out: Schizonts Mean IC50 (IC50^8h)) was 60.3 nM. For the same molecule, the IC50 [2] was 5.9 nM, the “increased levels of dAMP, dUTP, cytidine, xanthosine, and N-acetyl-lysine” value [3] was over 2 fold and the “peptide levels (hemoglobin catabolism signature)” value [3] was “more modest decrease in peptide levels”.
In the case of `CCCCN(CCCC)CC(O)c1cc(Cl)cc2c1-c1ccc(Cl)cc1/C2=C/c1ccc(Cl)cc1` (centres unmarked) [Lumefantrine, reference compound], the “Ratio lowest IC50 8hr/IC50 72hr” value ([1]; 3D7-A10) is reported as 11.6, the IC50 ([1]; 3D7, read-out: Early rings Mean IC50 (IC50^8h), 8-h exposure 0–8 hr, 3D7-A10, survival at 60 h) is reported as 15.4 nM and the IC50 ([1]; 3D7, read-out: Early trophozoites Mean IC50 (IC50^8h), 8-h exposure 16–24 hr, 3D7-A10, survival at 60 h) is reported as 19.5 nM. The IC50 ([1]; 3D7, read-out: IC50^8h values, text summary of Table S1) was under 300 nM, the IC50 ([1]; 3D7, read-out: Late rings Mean IC50 (IC50^8h), 8-h exposure 8–16 hr, 3D7-A10, survival at 60 h) was 15.8 nM and the IC50 ([1]; 3D7, read-out: Late trophozoites Mean IC50 (IC50^8h), 8-h exposure 24–32 hr, 3D7-A10, survival at 60 h) was 22.3 nM. The IC50 ([1]; 3D7, read-out: Schizonts Mean IC50 (IC50^8h), 8-h exposure 32–40 hr, 3D7-A10, survival at 60 h) was 81 nM, the “Stage of peak activity (Figure 6)” value ([1]; period when the parasite was most susceptible (lowest IC50^8h)) was “ring and trophozoite stages; also recorded: both rings and trophozoites” and the IC50 [2] was 1.3 nM. For the same molecule, the “peptide levels (hemoglobin catabolism signature)” value ([4]; 10 × IC50^72h, 2.5 hr, trophozoites) was “minor peptide increases”, the “Log2(fold changes) 3-phosphoglycerate” value ([4]; metabolite 3-phosphoglycerate, log2 fold change) was 0.2561 and the “Log2(fold changes) 4-Pyridoxic acid” value ([4]; metabolite 4-Pyridoxic acid, log2 fold change) was 0.0070. The “Log2(fold changes) 4-aminobutyrate” value ([4]; metabolite 4-aminobutyrate, log2 fold change) was -0.1610, the “Log2(fold changes) 4-phosphopantetheine” value ([4]; metabolite 4-phosphopantetheine, log2 fold change) was 0.0000 and the “Log2(fold changes) 4-phosphopantothenate” value ([4]; metabolite 4-phosphopantothenate, log2 fold change) was 0.0324. The “Log2(fold changes) 5-aminopentanoic acid” value ([4]; metabolite 5-aminopentanoic acid, log2 fold change) was 0.0000, the “Log2(fold changes) 5-methyl-THF” value ([4]; metabolite 5-methyl-THF, log2 fold change) was 0.0000 and the “Log2(fold changes) 5-phosphoribosyl-1-pyrophosphate” value ([4]; metabolite 5-phosphoribosyl-1-pyrophosphate, log2 fold change) was 0.0000. For the same molecule, the “Log2(fold changes) 6-phospho-D-gluconate” value ([4]; metabolite 6-phospho-D-gluconate, log2 fold change) was -0.0221, the “Log2(fold change) HVDD” value ([4]; metabolite HVDD) was 0.0000 and the “Log2(fold change) Hydroxyisocaproic acid” value ([4]; metabolite Hydroxyisocaproic acid) was 0.0000. For the same molecule, the “Log2(fold change) IDP” value ([4]; metabolite IDP) was 0.0726, the “Log2(fold change) IMP” value ([4]; metabolite IMP) was 0.0056 and the “Log2(fold change) Inositol” value ([4]; metabolite Inositol) was 0.0000. For the same molecule, the “Log2(fold change) Isopentyl-PP” value ([4]; metabolite Isopentyl-PP) was 0.0000, the “Log2(fold change) L-arginino-succinate” value ([4]; metabolite L-arginino-succinate) was -0.9519 and the “Log2(fold change) LD” value ([4]; metabolite LD) was -0.1057. For the same molecule, the “Log2(fold change) Myristoyl/tetradecanoyl-CoA” value ([4]; metabolite Myristoyl/tetradecanoyl-CoA) was 0.0333, the “Log2(fold change) N-Acetyl-L-alanine” value ([4]; metabolite N-Acetyl-L-alanine) was -0.2647 and the “Log2(fold change) N-acetyl-L-ornithine” value ([4]; metabolite N-acetyl-L-ornithine) was -0.6357. The “Log2(fold change) N-acetyl-glucosamine-1/6-phosphate” value ([4]; metabolite N-acetyl-glucosamine-1/6-phosphate) was 0.0000, the “Log2(fold change) N-acetyl-glutamate” value ([4]; metabolite N-acetyl-glutamate) was -0.0437 and the “Log2(fold change) N-acetyl-glutamine” value ([4]; metabolite N-acetyl-glutamine) was 0.0000. For the same molecule, the “Log2(fold change) N-carbamoyl-L-aspartate” value ([4]; metabolite N-carbamoyl-L-aspartate) was -0.1460, the “Log2(fold change) NAD+” value ([4]; metabolite NAD+) was -0.0402 and the “Log2(fold change) NADH” value ([4]; metabolite NADH) was 0.0000. For the same molecule, the “Log2(fold change) NADP+” value ([4]; metabolite NADP+) was -0.0151, the “Log2(fold change) NADPH” value ([4]; metabolite NADPH) was -0.2368 and the “Log2(fold change) O-acetyl-L-serine” value ([4]; metabolite O-acetyl-L-serine) was 0.0000. For the same molecule, the “Log2(fold change) Octoluse 8/1P” value ([4]; metabolite Octoluse 8/1P) was -0.0627, the “Log2(fold change) Octoluse Bisphosphate” value ([4]; metabolite Octoluse Bisphosphate) was -0.2224 and the “Log2(fold change) PD” value ([4]; metabolite PD) was -0.6715. The “Log2(fold change) PE” value ([4]; metabolite PE) was -0.8261, the “Log2(fold change) PEE” value ([4]; metabolite PEE) was -0.8026 and the “Log2(fold change) PEEK” value ([4]; metabolite PEEK) was -1.0553. For the same molecule, the “Log2(fold change) PVNF” value ([4]; metabolite PVNF) was -1.0323, the “Log2(fold change) Pyroglutamic acid” value ([4]; metabolite Pyroglutamic acid) was -0.2992 and the “Log2(fold change) Pyrophosphate” value ([4]; metabolite Pyrophosphate) was 0.0000. The “Log2(fold change) Ribose-5-phosphate” value ([4]; metabolite Ribose-5-phosphate) was -0.3541, the “Log2(fold change) S-adenosyl-L-homocysteine” value ([4]; metabolite S-adenosyl-L-homocysteine) was -0.4489 and the “Log2(fold change) S-adenosyl-L-methioninamine” value ([4]; metabolite S-adenosyl-L-methioninamine) was 0.0000. The “Log2(fold change) S-adenosyl-L-methionine” value ([4]; metabolite S-adenosyl-L-methionine) was 0.0000, the “Log2(fold change) S-methyl-5'-thioadenosine” value ([4]; metabolite S-methyl-5'-thioadenosine) was 0.0780 and the “Log2(fold change) SD” value ([4]; metabolite SD) was -0.5378. The “Log2(fold change) SDL” value ([4]; metabolite SDL) was -0.2618, the “Log2(fold change) SID” value ([4]; metabolite SID) was -0.7176 and the “Log2(fold change) Sedoheptulose bisphosphate” value ([4]; metabolite Sedoheptulose bisphosphate) was -0.0691. The “Log2(fold change) Thiamine pyrophosphate” value ([4]; metabolite Thiamine pyrophosphate) was 0.0528, the “Log2(fold changes) UDP-D-glucose” value ([4]; metabolite UDP-D-glucose, log2 fold change) was 0.0221 and the “Log2(fold changes) UDP-D-glucuronate” value ([4]; metabolite UDP-D-glucuronate, log2 fold change) was 0.0757. The “Log2(fold changes) UDP-N-acetyl-glucosamine” value ([4]; metabolite UDP-N-acetyl-glucosamine, log2 fold change) was -0.0029, the “Log2(fold changes) UDP” value ([4]; metabolite UDP, log2 fold change) was 0.0413 and the “Log2(fold changes) UMP” value ([4]; metabolite UMP, log2 fold change) was 0.0984. For the same molecule, the “Log2(fold changes) UTP” value ([4]; metabolite UTP, log2 fold change) was 0.0275, the “Log2(fold change) hydroxyphenylpyruvate” value ([4]; metabolite hydroxyphenylpyruvate) was 0.0000 and the “Log2(fold change) hydroxyproline/Aminolevulinate” value ([4]; metabolite hydroxyproline/Aminolevulinate) was -0.1667. The “Log2(fold change) hypoxanthine” value ([4]; metabolite hypoxanthine) was 0.0000, the “Log2(fold change) indole” value ([4]; metabolite indole) was 0.0000 and the “Log2(fold change) inosine” value ([4]; metabolite inosine) was -0.7307. The “Log2(fold change) isoleucine” value ([4]; metabolite isoleucine) was -0.3373, the “Log2(fold change) lactate” value ([4]; metabolite lactate) was -0.7427 and the “Log2(fold change) leucine” value ([4]; metabolite leucine) was -0.5467. The “Log2(fold change) lysine” value ([4]; metabolite lysine) was -0.9287, the “Log2(fold change) malate” value ([4]; metabolite malate) was -0.2859 and the “Log2(fold change) maleic acid” value ([4]; metabolite maleic acid) was -0.2558. For the same molecule, the “Log2(fold change) methionine” value ([4]; metabolite methionine) was -0.5836, the “Log2(fold change) myo-inositol” value ([4]; metabolite myo-inositol) was -1.2017 and the “Log2(fold change) nicotinamide mononucleotide” value ([4]; metabolite nicotinamide mononucleotide) was -0.1717. For the same molecule, the “Log2(fold change) nicotinate” value ([4]; metabolite nicotinate) was -0.0538, the “Log2(fold change) ornithine” value ([4]; metabolite ornithine) was 0.0000 and the “Log2(fold change) orotate” value ([4]; metabolite orotate) was -0.5668. The “Log2(fold change) orotidine-5'-phosphate” value ([4]; metabolite orotidine-5'-phosphate) was -1.0458, the “Log2(fold change) oxaloacetate” value ([4]; metabolite oxaloacetate) was 0.0000 and the “Log2(fold change) p-aminobenzoate” value ([4]; metabolite p-aminobenzoate) was 0.0000. The “Log2(fold change) p-hydroxybenzoate” value ([4]; metabolite p-hydroxybenzoate) was 0.0000, the “Log2(fold change) pantothenate” value ([4]; metabolite pantothenate) was 0.0000 and the “Log2(fold change) phenylalanine” value ([4]; metabolite phenylalanine) was -0.5609. The “Log2(fold change) phenylpyruvate” value ([4]; metabolite phenylpyruvate) was 0.0000, the “Log2(fold change) phosphoenolpyruvate” value ([4]; metabolite phosphoenolpyruvate) was 0.3731 and the “Log2(fold change) prephenate” value ([4]; metabolite prephenate) was 0.0000. The “Log2(fold change) proline” value ([4]; metabolite proline) was -0.4274, the “Log2(fold change) pyridoxine” value ([4]; metabolite pyridoxine) was -0.6579 and the “Log2(fold change) pyruvate” value ([4]; metabolite pyruvate) was -0.6264. For the same molecule, the “Log2(fold change) riboflavin” value ([4]; metabolite riboflavin) was -0.1882, the “Log2(fold change) ribose” value ([4]; metabolite ribose) was -0.6495 and the “Log2(fold change) ribose-phosphate” value ([4]; metabolite ribose-phosphate) was -0.3829. The “Log2(fold change) ribulose-5-phosphate” value ([4]; metabolite ribulose-5-phosphate) was -0.2140, the “Log2(fold change) serine” value ([4]; metabolite serine) was -0.3504 and the “Log2(fold change) sn-glycerol-3-phosphate” value ([4]; metabolite sn-glycerol-3-phosphate) was 0.0117. The “Log2(fold change) succinate/Methylmalonic acid” value ([4]; metabolite succinate/Methylmalonic acid) was 0.0257, the “Log2(fold change) succinyl-CoA/methylmalonyl-CoA” value ([4]; metabolite succinyl-CoA/methylmalonyl-CoA) was 0.0000 and the “Log2(fold change) taurine” value ([4]; metabolite taurine) was -0.1171. The “Log2(fold change) thiamine” value ([4]; metabolite thiamine) was -0.2236, the “Log2(fold change) threonine/homoserine” value ([4]; metabolite threonine/homoserine) was -0.3606 and the “Log2(fold change) thymidine” value ([4]; metabolite thymidine) was 0.0000. For the same molecule, the “Log2(fold changes) thymine” value ([4]; metabolite thymine, log2 fold change) was 0.0000, the “Log2(fold changes) trehalose-6-Phosphate” value ([4]; metabolite trehalose-6-Phosphate, log2 fold change) was 0.0000 and the “Log2(fold changes) tryptophan” value ([4]; metabolite tryptophan, log2 fold change) was -0.3412. The “Log2(fold changes) tyrosine” value ([4]; metabolite tyrosine, log2 fold change) was -0.2808 and the “Log2(fold changes) uridine” value ([4]; metabolite uridine, log2 fold change) was 0.0000.
